# Results taken from US20230374505A1, “Human XIST Antisense Oligonucleotides for X Reactivation Therapy” (The General Hospital Corporation, priority 2020, published 2023).
# Assays:
# [1] = system: human CDKL5 patient fibroblast line; test: Toxicity of nanaomycin to CDKL5 patient fibroblasts; type: cell-based; settings: added every 2 days, 5 days treatment; data not shown
# Method: Experiments were also conducted to test Xi reactivation in human CDKL5 patient's fibroblast with XIST ASO-6B and DNMT3 inhibitor, Nanaomycin, co-treatment. A human CDKL5 patient fibroblast line carrying mutation on the Xa was treated with an ASO to XIST and a DNMT3i, nanaomycin A. After 5 days of treatment with 20 nM XIST ASO-6B (added once at day 0; lipofectamine transfection) and 25 nM-1 uM nanaomycin A (added every 2 days; days 0, 2, and 4), cells were harvested for qPCR analysis (FIG. 10A). Nanaomycin is very toxic, and the cells were dead in concentration above 250 nM (data not shown).
# cell culture = test: Tolerable Aza concentration in cell culture; type: cell-based
# [2] = in plasma; cited from earlier work
# [3] = system: Xi reactivation in the brain; test: Aza/decitabine three pulse treatment, Xi reactivation in the brain; type: in vivo, mouse; settings: three short pulses delivered systemically; after two weeks
# Description: ASO drugs are generally more specific and have the advantage that information on pharmacokinetics and toxicity studies for chemically similar ASOs is transferable and cumulative. Thus, ASOs may have a more favorable path to regulatory approval. Small molecules generally have lower selectivity and may face steeper hurdles in the approval process within the US Food and Drug Administration (FDA). By mixing modalities, our approach may potentially anticipate a more streamlined approach to FDA approval. […] Unlike LNA-based ASOs which have tissue half-lives of several weeks (Wahlestedt C et al. Potent and nontoxic antisense oligonucleotides containing locked nucleic acids. Proc Natl Acad Sci USA. 2000; 97:5633-5638), Aza is known to have a very short half-life (t1/2<1h in plasma) (Welch J S et al. TP53 and decitabine in acute myeloid leukemia and myelodysplastic syndromes. N Engl J Med. 2016; 375:2023-2036). However, once DNA is demethylated, the state may be stable (Kordasiewicz H B et al. Sustained therapeutic reversal of Huntington's disease by transient repression of huntingtin synthesis. Neuron. 2012; 74:1031-1044). Future work will determine the duration of the effect and whether periodic boosters of either Aza or ASO might be necessary to maintain the reactivation.
# Decitabine was administered to the XIST2lox, Nestin-Cre F2 generation, by IP injection at 5 weeks old. […]
# CDKL5 wt allele (Xi) = test: CDKL5 wt allele reactivation in human CDKL5 patient fibroblasts, allele-specific qPCR; type: cell-based
# Method: FIGS. 6A-6B. XIST ASO (ASO-6B) and DNMTi co-treatment in CDKL5 patient fibroblast. (A) A schematic of treatment of a human CDKL5 patient fibroblast line carrying mutation on the Xa. After 3 days of treatment with 100 nM XIST ASOs (lipofectamine transfection) and 0.5 uM Aza (added every 2 days), harvested cells underwent qPCR analysis. […] CDKL5 wt reactivation was normalized to CDKL5mut expression from the Xa chromosome, normalized to RPL13a.
# (§1) FIGS. 8A-8C. Xi reactivation in human CDKL5 patient's fibroblast with XIST ASO+/−DNMTi (Decitabine, Azacitidine, RG-108). (A) A human CDKL5 patient fibroblast line carrying mutation on the Xa was treated with ASOs to XIST and three DNMTi. On day 0, cells were treated with 20 nM of XIST ASO-6B, and 1 uM of each DNMTi every 2 days. On day 7, cells were harvested for qPCR analysis. […] XIST expression was relative to untreated levels, normalized to RPL13a. […] CDKL5 wt reactivation was normalized to CDKL5mut expression from the Xa chromosome.
# FIGS. 9A-9C. Xi reactivation in human CDKL5 patient's fibroblast with XIST ASO-6B and DNMT inhibitor (SGI-1027) co-treatment. (A) A human CDKL5 patient fibroblast line carrying mutation on the Xa was treated with an ASO to XIST and an DNMTi. […]
# XIST = XIST expression in CDKL5 patient fibroblasts after XIST ASO with or without DNMTi, qPCR; type: cell-based, human
# Method: as §1, with “days.” for “days. On day 7, cells were harvested for qPCR analysis.”
# FIGS. 11A-11B. Triplicate experiment showing Xi reactivation in human CDKL5 patient's fibroblast with XIST ASO+/−DNMTi (Decitabine, Azacitidine, RG-108). […] CDKL5 wt reactivation was normalized to CDKL5mut expression from the Xa chromosome. Data shown are the average of three experiments; error bars are standard deviation.
# RNA was isolated by Trizol (Life Technologies) extraction (tissues were snap frozen in liquid nitrogen and ground with pestle and mortar or put in Trizol and homogenized using a Qiagen TissueLyser), treated with TurboDNAse for 30 min at 37° C. […] The relative efficiency of the reactivations was calculated by comparing to GAPDH or TBP RNA as the internal control in mouse experiment. The relative efficiency of the reactivations was calculated by comparing to RPL13a as the internal control in human cells. […]
compound,measurement,setting,value
"CC1OC(CC(=O)O)CC2=C1C(=O)c1c(O)cccc1C2=O (centres unmarked) [Nanaomycin, nanaomycin A]",concentration above which the cells were dead,[1],above 250 nM
"Nc1ncn([C@H]2C[C@H](O)[C@@H](CO)O2)c(=O)n1 [Aza, 5-aza-2′-deoxycytidine]",tolerable concentration in cell culture,cell culture,0.5 µM
same,t1/2,[2],< 1 h
same,Xi reactivation in the brain,[3],sufficient to induce Xi reactivation
"ASO 6B: XIST ASO AGAAGTCTGGCACATCTGTG, SEQ ID NO:11 (LNA-flanked DNA gapmer, wing lengths and linkages not given here, further chemistry not given here)",CDKL5 reactivation,"CDKL5 wt allele (Xi); 20 nM ASO 6B at day 0, 1 uM Decitabine, 0.5 uM Azacitidine or 1 uM RG-108 at days 0 and 2, harvested Day 4, average of three experiments (FIG. 11B)",0.13%
same,CDKL5 reactivation,"CDKL5 wt allele (Xi); 20 nM ASO-6B at day 0, 1 uM DNMTi every 2 days, harvested day 7 (FIG. 8C)",0.7%
same,XIST expression,"XIST; 20 nM ASO-6B with and without 1 uM DNMTi, 7 days (FIG. 8B)",decreased
same,XIST expression,"XIST; 20 nM ASO-6B with or without DNMTi, 4 days (FIG. 11A)",decreased
